{"source": "the NIST ThermoML archive (doi:10.1021/je200787v)", "key": {"[1]": {"settings": "Liquid"}, "[2]": {"assay": "xn = mol fraction of the nth substance listed", "settings": "Liquid; for viscosity: Falling or rolling sphere viscometry; for mass density: Vibrating tube method"}}, "note": "“And” between values parts separate entries of the source, which are not always exact repeats. Equal entries are not always repeated. ± gives the expanded uncertainty stated by the source.", "data": [{"smiles": "CCCCCCCCCCCCCCCCCC", "note": "[octadecane]", "values": [{"measurement": "mass density", "setting": "[1]; 323.1 K", "value": "757 ± 4 kg/m3 [middle of 4 runs]"}, {"measurement": "mass density", "setting": "[1]; 323.3 K", "value": "756 ± 4 kg/m3 and 757 ± 4 kg/m3"}, {"measurement": "mass density", "setting": "[1]; 372.8 K", "value": "734 ± 5 kg/m3 [middle of 6 runs]"}, {"measurement": "mass density", "setting": "[1]; 422.5 K", "value": "703 ± 5 kg/m3 and 704 ± 5 kg/m3"}, {"measurement": "mass density", "setting": "[1]; 422.6 K", "value": "700 ± 5 kg/m3 [middle of 6 runs]"}]}, {"smiles": "CCCCCCCCCCCCCCCCCC", "note": "[octadecane] + CC", "values": [{"measurement": "viscosity", "setting": "[2]; 323.1 K, x2 = 0.27", "value": "1.59 ± 0.16", "unit": "mPa·s"}, {"measurement": "viscosity", "setting": "[2]; 323.1 K, x2 = 0.415", "value": "1.09 ± 0.11", "unit": "mPa·s"}, {"measurement": "viscosity", "setting": "[2]; 323.1 K, x2 = 0.789", "value": "0.31 ± 0.03", "unit": "mPa·s"}, {"measurement": "viscosity", "setting": "[2]; 323.1 K, x2 = 0.844", "value": "0.23 ± 0.02", "unit": "mPa·s"}, {"measurement": "mass density", "setting": "[2]; 323.1 K, x2 = 0.27", "value": "732 ± 2", "unit": "kg/m3"}, {"measurement": "mass density", "setting": "[2]; 323.1 K, x2 = 0.415", "value": "715 ± 2", "unit": "kg/m3"}, {"measurement": "mass density", "setting": "[2]; 323.1 K, x2 = 0.789", "value": "606 ± 2", "unit": "kg/m3"}, {"measurement": "mass density", "setting": "[2]; 323.1 K, x2 = 0.844", "value": "572 ± 2", "unit": "kg/m3"}, {"measurement": "viscosity", "setting": "[2]; 323.3 K, x2 = 0.546", "value": "0.81 ± 0.08", "unit": "mPa·s"}, {"measurement": "viscosity", "setting": "[2]; 323.3 K, x2 = 0.654", "value": "0.55 ± 0.06", "unit": "mPa·s"}, {"measurement": "mass density", "setting": "[2]; 323.3 K, x2 = 0.546", "value": "691 ± 2", "unit": "kg/m3"}, {"measurement": "mass density", "setting": "[2]; 323.3 K, x2 = 0.654", "value": "662 ± 2", "unit": "kg/m3"}, {"measurement": "viscosity", "setting": "[2]; 372.8 K, x2 = 0.127", "value": "0.87 ± 0.09", "unit": "mPa·s"}, {"measurement": "viscosity", "setting": "[2]; 372.8 K, x2 = 0.298", "value": "0.7 ± 0.07", "unit": "mPa·s"}, {"measurement": "viscosity", "setting": "[2]; 372.8 K, x2 = 0.372", "value": "0.62 ± 0.06", "unit": "mPa·s"}, {"measurement": "viscosity", "setting": "[2]; 372.8 K, x2 = 0.474", "value": "0.52 ± 0.05", "unit": "mPa·s"}, {"measurement": "viscosity", "setting": "[2]; 372.8 K, x2 = 0.536", "value": "0.46 ± 0.05", "unit": "mPa·s"}, {"measurement": "viscosity", "setting": "[2]; 372.8 K, x2 = 0.599", "value": "0.39 ± 0.04", "unit": "mPa·s"}, {"measurement": "viscosity", "setting": "[2]; 372.8 K, x2 = 0.666", "value": "0.32 ± 0.03", "unit": "mPa·s"}, {"measurement": "viscosity", "setting": "[2]; 372.8 K, x2 = 0.701", "value": "0.29 ± 0.03", "unit": "mPa·s"}, {"measurement": "mass density", "setting": "[2]; 372.8 K, x2 = 0.127", "value": "719 ± 2", "unit": "kg/m3"}, {"measurement": "mass density", "setting": "[2]; 372.8 K, x2 = 0.298", "value": "703 ± 2", "unit": "kg/m3"}, {"measurement": "mass density", "setting": "[2]; 372.8 K, x2 = 0.372", "value": "692 ± 2", "unit": "kg/m3"}, {"measurement": "mass density", "setting": "[2]; 372.8 K, x2 = 0.474", "value": "676 ± 2", "unit": "kg/m3"}, {"measurement": "mass density", "setting": "[2]; 372.8 K, x2 = 0.536", "value": "664 ± 2", "unit": "kg/m3"}, {"measurement": "mass density", "setting": "[2]; 372.8 K, x2 = 0.599", "value": "648 ± 2", "unit": "kg/m3"}, {"measurement": "mass density", "setting": "[2]; 372.8 K, x2 = 0.666", "value": "628 ± 2", "unit": "kg/m3"}, {"measurement": "mass density", "setting": "[2]; 372.8 K, x2 = 0.701", "value": "614 ± 2", "unit": "kg/m3"}, {"measurement": "viscosity", "setting": "[2]; 422.5 K, x2 = 0.547", "value": "0.29 ± 0.03", "unit": "mPa·s"}, {"measurement": "viscosity", "setting": "[2]; 422.5 K, x2 = 0.588", "value": "0.27 ± 0.03", "unit": "mPa·s"}, {"measurement": "mass density", "setting": "[2]; 422.5 K, x2 = 0.547", "value": "624 ± 2", "unit": "kg/m3"}, {"measurement": "mass density", "setting": "[2]; 422.5 K, x2 = 0.588", "value": "613 ± 2", "unit": "kg/m3"}, {"measurement": "viscosity", "setting": "[2]; 422.6 K, x2 = 0.096", "value": "0.55 ± 0.06", "unit": "mPa·s"}, {"measurement": "viscosity", "setting": "[2]; 422.6 K, x2 = 0.194", "value": "0.49 ± 0.05", "unit": "mPa·s"}, {"measurement": "viscosity", "setting": "[2]; 422.6 K, x2 = 0.296", "value": "0.43 ± 0.04", "unit": "mPa·s"}, {"measurement": "viscosity", "setting": "[2]; 422.6 K, x2 = 0.365", "value": "0.4 ± 0.04", "unit": "mPa·s"}, {"measurement": "viscosity", "setting": "[2]; 422.6 K, x2 = 0.427", "value": "0.37 ± 0.04", "unit": "mPa·s"}, {"measurement": "viscosity", "setting": "[2]; 422.6 K, x2 = 0.477", "value": "0.33 ± 0.03", "unit": "mPa·s"}, {"measurement": "mass density", "setting": "[2]; 422.6 K, x2 = 0.096", "value": "688 ± 2", "unit": "kg/m3"}, {"measurement": "mass density", "setting": "[2]; 422.6 K, x2 = 0.194", "value": "679 ± 2", "unit": "kg/m3"}, {"measurement": "mass density", "setting": "[2]; 422.6 K, x2 = 0.296", "value": "667 ± 2", "unit": "kg/m3"}, {"measurement": "mass density", "setting": "[2]; 422.6 K, x2 = 0.365", "value": "659 ± 2", "unit": "kg/m3"}, {"measurement": "mass density", "setting": "[2]; 422.6 K, x2 = 0.427", "value": "648 ± 2", "unit": "kg/m3"}, {"measurement": "mass density", "setting": "[2]; 422.6 K, x2 = 0.477", "value": "640 ± 2", "unit": "kg/m3"}]}]}
